Among the test systems are ACHN renal; NCI-H23 lung; UACC-62 melanoma; SK-MEL-5 melanoma; DU-145 prostate; SF-295 CNS; SNB-19 CNS; MCF7 breast; BT-549 breast; MDA-MB-435.
Holding throughout (experiment): DTP human tumour cell line panel, 48 h

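1) Cells in 96-well plates. 2) Compound, 48 h, 5 concentrations. 3) Linear interpolation between surrounding doses. 4) Unreached endpoint = highest concentration. GI50 marks 50% less growth. TGI is the concentration that stops growth completely.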

In the case of `C=C1CCC2(C#N)[C@H]3[C@H](CC[C@@H]2C)[C@@H](C)C[C@@H](CC(C)(C)NC(=O)CN2CCC2=O)[C@H]13` (stereo not given in full), the GI50 in the assay with ACHN renal was 11.3 µM; in the assay with NCI-H23 lung, 10.4 µM; with UACC-62 melanoma it was 6.54 µM; with SK-MEL-5 melanoma, 4.24 µM; in the assay with DU-145 prostate it was 12.1 µM; in the assay with SF-295 CNS, 3.27 µM. For the same compound, the GI50 with SNB-19 CNS is 9.58 µM; in the assay on MCF7 breast it was 4.58 µM; with BT-549 breast, 2.96 µM; in the assay with MDA-MB-435 it was 6.19 µM. Moreover, the TGI was determined as 51.4 µM in the assay on ACHN renal; 36.7 µM in the assay on NCI-H23 lung; 20.1 µM in the assay with UACC-62 melanoma; 16.2 µM in the assay on SK-MEL-5 melanoma; 41.1 µM with DU-145 prostate; 13.4 µM in the assay on SF-295 CNS. Also, the TGI turned out to be 48.4 µM in the assay on SNB-19 CNS, 23.4 µM with MCF7 breast, 17.3 µM in the assay with BT-549 breast and 23.8 µM in the assay on MDA-MB-435.
Take `CC(C)(C)OC(=O)NCCCn1c2c(c3ccccc3c1=O)C(=O)c1ccccc1-2`: the GI50 was 14.3 µM in the assay on ACHN renal; 13.4 µM in the assay with NCI-H23 lung; 20.4 µM in the assay on UACC-62 melanoma; 35.2 µM in the assay with SK-MEL-5 melanoma; 74.8 µM with DU-145 prostate; 16.8 µM with SF-295 CNS. Further, the GI50 in the assay with SNB-19 CNS is 12.1 µM; in the assay with MCF7 breast, 15 µM; in the assay on BT-549 breast, 31.7 µM; in the assay with MDA-MB-435 it was greater than 100 µM. In addition, the TGI in the assay on ACHN renal is 67.9 µM; in the assay with NCI-H23 lung it was 28.8 µM; in the assay with UACC-62 melanoma, 53.6 µM; in the assay with SK-MEL-5 melanoma it was greater than 100 µM; in the assay on DU-145 prostate it was greater than 100 µM; in the assay on SF-295 CNS it was 44.6 µM. For the same compound, the TGI was 29.6 µM with SNB-19 CNS, 39.4 µM with MCF7 breast, greater than 100 µM with BT-549 breast and greater than 100 µM with MDA-MB-435.
On to `Cc1c2c(c(C)c3c4c(oc13)CCCC4)C=NCC2`, for which the TGI amounted to 37.7 µM in the assay with ACHN renal; 31.9 µM in the assay on NCI-H23 lung; 29.6 µM in the assay with UACC-62 melanoma; 30.8 µM in the assay with SK-MEL-5 melanoma; 28.5 µM in the assay with DU-145 prostate; 31.7 µM in the assay on SF-295 CNS. Moreover, the TGI came to 53.5 µM in the assay on SNB-19 CNS, 30.4 µM with MCF7 breast, 33.7 µM in the assay with BT-549 breast and 29.3 µM in the assay on MDA-MB-435.
For `COc1ccc(C(=O)NNc2nc(Cl)nc(N3CCN(C(c4ccccc4)c4ccccc4)CC3)n2)cc1`, the GI50 with ACHN renal was 1.76 µM; in the assay on NCI-H23 lung, 1.88 µM; in the assay on UACC-62 melanoma, 1.82 µM; in the assay on SK-MEL-5 melanoma, 16.7 µM; in the assay on DU-145 prostate it was 3.93 µM; in the assay on SF-295 CNS, 16 µM. Further, the GI50 in the assay on SNB-19 CNS was 1.84 µM; in the assay on MCF7 breast it was greater than 100 µM; with BT-549 breast, 1.74 µM; in the assay on MDA-MB-435, 3.58 µM. Moreover, the TGI in the assay with ACHN renal turned out to be 3.16 µM; with NCI-H23 lung, 4.02 µM; with UACC-62 melanoma, 3.54 µM; in the assay on SK-MEL-5 melanoma it was 31.7 µM; in the assay on DU-145 prostate, 13.6 µM; in the assay with SF-295 CNS, 30.6 µM. Moreover, the TGI in the assay with SNB-19 CNS was 3.54 µM; with MCF7 breast it was greater than 100 µM; in the assay on BT-549 breast, 3.47 µM; in the assay on MDA-MB-435 it was 13 µM.
For `NN=C(CC(O)(C(F)(F)Cl)C(F)(F)Cl)CC(O)(C(F)(F)Cl)C(F)(F)Cl`, the TGI in the assay on ACHN renal, in the assay on NCI-H23 lung, in the assay on UACC-62 melanoma, with SK-MEL-5 melanoma, with DU-145 prostate and in the assay on SF-295 CNS was greater than 10 µM in each case. Besides, the TGI in the assay on SNB-19 CNS, with MCF7 breast, in the assay with BT-549 breast and in the assay on MDA-MB-435 was greater than 10 µM throughout.

As usually defined, the GI50 is the concentration that inhibits growth by half. One may read the TGI as the concentration giving total growth inhibition. Read a low TGI as more potent growth arrest.
